Results as given in the supplement of paper PMC10307832.

Columns and labels:
Assay in all cases: relative viability (nuclei count vs DMSO), 5 days (fraction); higher = more cells survive
[1] = compound: CCCS(=O)(=O)Nc1ccc(F)c(C(=O)c2c[nH]c3ncc(-c4ccc(Cl)cc4)cc23)c1F [Vemurafenib] + Cc1nc(Nc2ncc(C(=O)Nc3c(C)cccc3Cl)s2)cc(N2CCN(CCO)CC2)n1 [Dasatinib] (partner 0.075 µM)
Summary of the method: (§1)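 The day after seeding in 1536-well plates, lung cancer cell lines were treated by pin tool with a single drug, or with a fixed anchor-drug dose together with five library-drug doses (not always all listed) in √10 steps. After 5 days, a combined fix-and-stain solution (final 0.05% Triton X-100, 1% formaldehyde, 1 ug/ml Hoechst) was added. Nuclei counted on 4× images gave relative viability as treated counts over vehicle counts, reported as the median of duplicate plates.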

[2] = compound: Cc1nc(NC(=O)N2CCC[C@H]2C(N)=O)sc1-c1ccnc(C(C)(C)C(F)(F)F)c1 [Alpelisib] + COc1cccc2cc(-c3nc([C@H]4CC[C@H](C(=O)O)CC4)n4ncnc(N)c34)[nH]c12 [OSI-027] (partner 0.5 µM)
Summary of the method: as §1

[3] = compound: Cc1nc(NC(=O)N2CCC[C@H]2C(N)=O)sc1-c1ccnc(C(C)(C)C(F)(F)F)c1 [Alpelisib] + Cc1cc(Nc2cc(N3CCN(C)CC3)nc(Sc3ccc(NC(=O)C4CC4)cc3)n2)n[nH]1 [Tozasertib] (partner 0.1 µM)
Summary of the method: as §1

[4] = compound: Cc1nc(NC(=O)N2CCC[C@H]2C(N)=O)sc1-c1ccnc(C(C)(C)C(F)(F)F)c1 [Alpelisib] + O=C(c1cc(Cc2n[nH]c(=O)c3ccccc23)ccc1F)N1CCN(C(=O)C2CC2)CC1 [Olaparib] (partner 8 µM)
Summary of the method: as §1

With UMC-11 the relative viability ([1]; first compound 0.03162 µM) was 0.465, the relative viability ([1]; first compound 0.1 µM) was 0.459 and the relative viability ([1]; first compound 0.3162 µM) was 0.455. For the same cell line, the relative viability ([1]; first compound 1 µM) was 0.537, the relative viability ([2]; first compound 0.04 µM) was 0.473 and the relative viability ([2]; first compound 0.1265 µM) was 0.464. It also gave a relative viability ([2]; first compound 0.4 µM) of 0.502, a relative viability ([2]; first compound 1.265 µM) of 0.438 and a relative viability ([2]; first compound 4 µM) of 0.462. The relative viability ([3]; first compound 0.04 µM) was 0.188, the relative viability ([3]; first compound 0.1265 µM) was 0.198 and the relative viability ([3]; first compound 0.4 µM) was 0.213. The relative viability ([3]; first compound 1.265 µM) was 0.219, the relative viability ([3]; first compound 4 µM) was 0.186 and the relative viability ([4]; first compound 0.04 µM) was 0.362. The relative viability ([4]; first compound 0.1265 µM) was 0.328, the relative viability ([4]; first compound 0.4 µM) was 0.389 and the relative viability ([4]; first compound 1.265 µM) was 0.346. It also gave a relative viability ([4]; first compound 4 µM) of 0.315.
